Source: US10183040B2, “Method for regulation of lipid metabolism” (PROFEAT BIOTECHNOLOGY CO., LTD., priority 2014, dated 2019)

Test: Serum triacylglycerol, cholesterol, HDL and LDL assays of diabetes mice, Table 4 groups (FIG. 4A-4D)
Type: in vivo, db/db mice (C57BLKS/J-leprdb/leprdb)
Conditions: 4 mg/kg/day, versus phosphate solution control
Experimental: (§1) FIG. 4A is a bar chart of the triacylglycerol assay of diabetes mice in accordance with the present invention, wherein the mice of control group are administered with phosphate buffer; the mice of treatment group are administered with 4 mg/kg/day composition A1; the mice of B01 group are administered with commercial 4 mg/kg/day ferrous glycine, and the mice of C01 group are administered with 4 mg/kg/day ferrous sulfate.
as §1, with “4B” for “4A”, “cholesterol” for “triacylglycerol”, “sulfate. […]” for “sulfate.”
The mice were daily and orally administered with the composition A1 at dosage of […] for 12 weeks. The body weights of the mice were measured every 3 days, and the serum biochemical values of the mice were measured every 4 weeks after orally administering with the composition A1. Triacylglycerol and cholesterol of the serum biochemical values were determined using a Biochem-Immuno Fully Autoanalyzer (Brea, Calif., USA) or a Chemistry Analyzer (Hitachi, Ltd., Japan). […]

With NCC(=O)[O-].NCC(=O)[O-].[Fe+2] [commercial ferrous glycine, ferrous glycine] the triacylglycerol was “effectively reduced”.

In the case of “ferrous sulfate [commercial ferrous sulfate]”, the triacylglycerol is reported as “effectively reduced”.
